From patent US9173397B2, “Formulation component” (Syngenta Limited, priority 2011, dated 2015) come the findings set out here.

The test system of experiment [1] is Septoria tritici. Briefly: Septoria tritici infection of wheat plants, isopyrazam spray with/without adjuvants. It counts as in vivo, Septoria tritici (on wheat plants). The settings on record: conclusion from Table 2. On the procedure: The efficacy of the following aromatic acid esters tri-n-hexyltrimellitate (Morflex®560) and tri-isodecyl trimellitate (Morflex®530), as adjuvants in compositions comprising isopyrazam was tested and compared to the standard formulations (both EC and SC) of the fungicide, which lack this type of adjuvant.
Wheat plants were inoculated with the fungus Septoria tritici. Five days after inoculation the plants were sprayed with a diluted emulsion concentrate or suspension concentrate formulation of the fungicide isopyrazam at rates of 3, 10, 30 and 100 mg of the fungicide per litre of spray solution, using a laboratory track sprayer which delivered the spray at a rate of 200 liters per hectare. Spray tests were also carried out with diluted suspension concentrate additionally comprising each of the benzoate adjuvants described above. These adjuvants were added to the spray solution at a rate of 0.5% w/w, based on the quantity of spray liquor. The adjuvant oils were emulsified using a small amount of the surfactant Pluronic® PE 10500, which was present in the composition at a concentration of 0.02% v/v. The leaves of the plants were assessed visually 14 days after the spray application and the damage was expressed as the percentage of the leaf area infected.

For experiment [2], the system named is Abutilon theophrasti, Chenopodium album, Digitaria sanguinalis, Setaria viridis. Briefly: Glasshouse weed kill, nicosulfuron with/without adjuvants (Example 3). It counts as in vivo. Conditions: conclusion from Table 4. How it is done: The efficacy of the aromatic acid ester Morflex ®560 (tri-n-hexyltrimellitate) as an adjuvant for the herbicide nicosulfruon was tested against four weed species in a glasshouse and compared to the well-know adjuvants, tris-2-ethylhexyl phosphate and acetyl tributyl citrate which were tested at concentrations of 0.2% w/w. The adjuvant oils were emulsified using a small amount of the surfactant Pluronic® PE 10500, which was present in the composition at a concentration of 0.02% v/v.
An agrochemical composition was prepared containing 0.2% v/v of the adjuvant in a track sprayer, and was applied at a volume of 200 liters per hectare. Nicosulfuron was applied at a rate of either 30 or 60 grams of pesticide per hectare. The weed species and their growth stage at spraying were Abutilon theophrasti (ABUTH; growth stage 13), Chenopodium album (CHEAL; growth stage 14), Digitaria sanguinalis (DIGSA; growth stage 13), and Setaria viridis (SETVI; growth stage 13).
Each spray test replicated three times. The efficacy of the herbicide was assessed visually and expressed as a percentage of the leaf area killed. Samples were assessed at time periods of 14 and 21 days following application. […]

Experiment [3] has as its system Alopecurus myosuroides, Avena fatua, Lolium perenne, Setaria viridis. Briefly: Glasshouse weed kill, pinoxaden with/without adjuvants (Example 6). It counts as in vivo. The settings on record: conclusion from Table 7. On the procedure: The efficacy of the aromatic ester tri-n-hexyltrimellitate (Morflex®560) was tested in a glasshouse against four weed species using the herbicide pinoxaden. An agrochemical composition was prepared containing 0.2% v/v of the adjuvant in a track sprayer and was applied at a volume of 200 liters per hectare. The adjuvant oils were emulsified using a small amount of the surfactant Pluronic® PE 10500, which was present in the composition at a concentration of 0.02% v/v. Pinoxaden was applied at either 7.5 or 15 grams of pesticide per hectare on each of the weed species. The weed species and their growth stage at spraying were Alopecurus myosuroides (ALOMY; growth stage 13), Avena fatua (AVEFA; growth stage 12); Lolium perenne (LOLPE; growth stage 13), Setaria viridis (SETVI; growth stage 14).
Each spray test was replicated three times. The efficacy of the herbicide was assessed visually and expressed as a percentage of the leaf area killed. Samples were assessed at time periods of 14 and 21 days following application. The results shown in table 7 below are mean averages over the two rates of pinoxaden, three replicates, four weed species and the two assessment timings, and are compared to the efficacy of pinoxaden in the absence of adjuvant and pinoxaden in the presence of the known adjuvant acetyl tributyl citrate which was used at a concentration of 0.2% w/w.

Experiment [4] relates to Chenopodium album, Abutilon theophrasti, Setaria viridis, Xanthium strumarium. Briefly: Glasshouse weed kill, fomesafen with/without adjuvants (Example 4). It counts as in vivo. Conditions: conclusion from Table 5. On the procedure: The efficacy of the aromatic acid ester Morflex ®560 (tri-n-hexyltrimellitate) as an adjuvant for the herbicide fomesafen was tested against four weed species in a glasshouse and compared to the well-know adjuvants, acetyl tributyl citrate and Turbocharge® which were added at concentrations of 0.2 and 0.5% w/w respectively. The adjuvant oils were emulsified using a small amount of the surfactant Pluronic® PE 10500, which was present in the composition at a concentration of 0.02% v/v.
An agrochemical composition was prepared containing 0.2% v/v of the adjuvant in a track sprayer and was applied at a volume of 200 liters per hectare. Fomesafen was applied at either 60 or 120 grams of pesticide per hectare on each of the weed species. The weed species and their growth stage at spraying were Chenopodium album (CHEAL; growth stage 14), Abutilon theophrasti (ABUTH; growth stage 12), Setaria viridis (SETVI; growth stage 13), and Xanthium strumarium (XANST; growth stage 12).
Each spray test was replicated three times. The efficacy of the herbicide was assessed visually and expressed as a percentage of the leaf area killed. Samples were assessed at time periods of 7, 14 and 21 days following application. […]

Experiment [5] relates to Polygonum convolvulus, Brachiaria platyphylla, Digitaria sanguinalis, Amaranthus tuberculatus. The experiment in a line: Glasshouse weed kill, mesotrione with/without adjuvants (Example 5). It counts as in vivo. The settings on record: conclusion from Table 6. How it is done:
The efficacy of the aromatic ester tri-n-hexyltrimellitate (Morflex®560) was tested in a glasshouse against four weed species using the herbicide mesotrione. An agrochemical composition was prepared containing 0.2% v/v of the adjuvant in a track sprayer and was applied at a volume of 200 liters per hectare. The adjuvant oils were emulsified using a small amount of the surfactant Pluronic® PE 10500, which was present in the composition at a concentration of 0.02% v/v. Mesotrione was applied at either 45 or 90 grams of pesticide per hectare on weeds which had been grown to the 1.3 or 1.4 leaf stage. The weed species were Polygonum convolvulus (POLCO), Brachiaria platyphylla (BRAPL) Digitaria sanguinalis (DIGSA) and Amaranthus tuberculatus (AMATU).
Each spray test was replicated three times. The efficacy of the herbicide was assessed visually and expressed as a percentage of the leaf area killed. Samples were assessed at time periods of 7, 14 and 21 days following application. The results shown in Table 6 below are mean averages over the two rates of mesotrione, three relicates, four weed species and the three assessment timings and are compared to the efficacy of mesotrione in the absence of an adjuvant, and mesotrione in the presence of the commercially available adjuvants acetyl tributyl citrate or Tween®20 which were used at concentrations of 0.2 and 0.5% w/w respectively.

As for `CCCCCCOC(=O)c1ccc(C(=O)OCCCCCC)c(C(=O)OCCCCCC)c1` [Tri-n-hexyltrimellitate, Tri-n-hexyl trimellitate], the “adjuvant efficacy in words (isopyrazam, S. tritici)” value in experiment [1] is given as “as efficacious as the commercial tank mix adjuvant Turbocharge®”. Besides, in experiment [2], the “adjuvant efficacy in words (nicosulfuron)” value is “as effective an adjuvant as either tris-2-ethylhexylphosphate or acetyl tributyl citrate”. Besides, the “adjuvant efficacy in words (pinoxaden)” value in experiment [3] is reported as “more effective an adjuvant than acetyl tributyl citrate”. In addition, the “adjuvant efficacy in words (fomesafen)” value in experiment [4] is “as effective an adjuvant as Turbocharge® and better than acetyl tributyl citrate”. Also, the “adjuvant efficacy in words (mesotrione)” value in experiment [5] was “as effective an adjuvant as either acetyl tributyl citrate or Tween®20”.
